Data taken from patent publication US8487133B2, “Substituted bicyclo [4.1.0] heptane-7-carboxylic acid amides and derivatives thereof as food flavor substances” (Symrise AG, priority 2006, dated 2013).

How the values were obtained:
[1] = system: trained panel; experiment: Sensorial tests in American beef bouillon / meat broth by trained panel (mouthfeel, comparison with MSG); type: in vivo; settings: for umami taste compared to other compounds having an umami taste / MSG: American beef bouillon base, 5 ppm (IVc), 2 ppm (B1)+(B2), 0.5 ppm (P1)+(P2) vs 0.05 wt. % MSG (FIG. 1-3)
Description: This is also illustrated in the accompanying spider diagrams, in which an American beef bouillon as base is compared firstly to such a base containing an addition of 5 ppm of (1R,2S,5R,6S,7R)-2-isopropyl-5-methyl-bicyclo[4.1.0]heptane-7-carboxylic acid ethylamide (IVc) (FIG. 1) or 2 ppm of a mixture of (1S,2S,5R,6R,7S)-2-isopropyl-5-methyl-bicyclo[4.1.0]heptane-7-carboxylic acid cyclobutylamide (B1) and (1R,2S,5R,6S,7R)-2-isopropyl-5-methyl-bicyclo[4.1.0]heptane-7-carboxylic acid cyclobutylamide (B2) (FIG. 2) or 0.5 ppm of a mixture of (1S,2S,5R,6R,7S)-2-isopropyl-5-methyl-bicyclo[4.1.0]heptane-7-carboxylic acid cyclopentylamide (P1) and (1R,2S,5R,6S,7R)-2-isopropyl-5-methyl-bicyclo[4.1.0]heptane-7-carboxylic acid-cyclopentylamide (P2) (FIG. 3) respectively, and secondly with such a base containing an addition of 0.05 wt. % of MSG.
The mean values of the respective scores are shown.
The taste of a 0.5% American beef extract as base (continuous, pale line) was compared on the basis of an evaluation by a panel of trained testers with the taste firstly of such a base to which 5 ppm of (1R,2S,5R,6S,7R)-2-isopropyl-5-methyl-bicyclo[4.1.0]heptane-7-carboxylic acid ethylamide had been added (continuous, dark line), and secondly of such a base to which 0.05 wt. % of MSG had been added (dotted line).
The taste of a 0.5% American beef extract as base (continuous, pale line) was compared on the basis of an evaluation by a panel of trained testers to the taste firstly of such a base to which 2 ppm of a mixture of 1S,2S,5R,6R,7S)-2-isopropyl-5-methyl-bicyclo[4.1.0]heptane-7-carboxylic acid cyclobutylamide (B1) and (1R,2S,5R,6S,7R)-2-isopropyl-5-methyl-bicyclo[4.1.0]heptane-7-carboxylic acid cyclobutylamide (B2) had been added (continuous, dark line), and secondly of such a base to which 0.05 wt. % of MSG had been added (dotted line).
The taste of a 0.5 wt. % American beef extract as base (continuous, pale line) was compared on the basis of an evaluation by a panel of trained testers with the taste firstly of such a base to which 0.5 ppm of a mixture of (1S,2S,5R,6R,7S)-2-Isopropyl-5-methyl-bicyclo[4.1.0]heptane-7-carboxylic acid cyclopentylamide (P1) and (1R,2S,5R,6S,7R)-2-isopropyl-5-methyl-bicyclo[4.1.0]heptane-7-carboxylic acid cyclopentylamide (P2) had been added (continuous, dark line), and secondly of such a base to which 0.05 wt. % of MSG had been added (dotted line).

[2] = Sensorial tests of the taste of the compounds (own investigations); type: in vivo; settings: for cooling effect / salt-intensifying effect: sensorial tests; for intrinsic umami taste: sensorial tests of the compound
Description: From the taste aspect the use according to the invention of a compound of the Formula (I) which is one of the two enantiomeric compounds of the Formula (IVa),
In this connection the relative configuration of the stereogenic centers is of great importance.

Q: Which mouthfeel ([1]; 5 ppm added to 0.5 wt. % American beef bouillon, compared with 0.05 wt. % MSG) does the source give for `CCNC(=O)[C@@H]1[C@@H]2[C@H]1[C@H](C(C)C)CC[C@H]2C` (single isomer, unassigned) [Formula (IVc)] here?
A: Its mouthfeel is “increased by roughly the same extent as is normally achieved only by the addition of 0.05 wt. % of MSG”.

Q: What about the “umami taste compared to other compounds having an umami taste / MSG” value [1] of the same molecule?
A: Its value is “clear umami taste very similar to sodium glutamate (MSG)”.

Q: What about the “intensification of saltiness, sweetness and umami taste of aroma compositions” value ([2]; in vivo) of the same molecule?
A: Its value is “intensifies the saltiness, the sweetness and the umami taste”.

Q: And the cooling effect [2]?
A: Its cooling effect is “no cooling effect”.

Q: And the intrinsic umami taste [2]?
A: Its intrinsic umami taste is “very strongly pronounced”.

Q: Which results are given for `CCNC(=O)C1C2C1[C@H](C)CC[C@H]2C(C)C` (single isomer, unassigned) [mixture of both diastereomers]?
A: cooling effect [2]: can no longer be detected; intrinsic umami taste [2]: completely dominated by the umami impression of the (1R,2S,5R,6S,7R) isomer

Q: What does the source list for `CCNC(=O)C1C2CC(C)CC(C)C21` (stereo not drawn) [2,4-dimethyl-bicyclo[4.1.0]heptane-7-carboxylic acid ethylamide]?
A: salt-intensifying effect [2]: slight; intrinsic umami taste [2]: stronger, umami-like

Q: For `CCNC(=O)C1C2C(C)CCC(C(C)C)C12` (stereo not drawn) [2-Isopropyl-5-methyl-2-ispropyl-bicyclo[4.1.0]heptane-7-carboxylic acid ethylamide], which sensorial properties ([2]; in vivo) is on record?
A: Its sensorial properties is “particularly strong”.

Q: For `CCNC(=O)C1C2CCCC(C(C)C)C21` (stereo not drawn) [2-isopropyl-bicyclo[4.1.0]heptane-7-carboxylic acid ethylamide, reference compound], which salt-intensifying effect [2] is on record?
A: The salt-intensifying effect was “slight”.

Q: And the intrinsic umami taste [2]?
A: Its intrinsic umami taste is “very slight, umami-like”.

Q: For `CCNC(=O)[C@@H]1[C@@H]2[C@H]1[C@H](C)CC[C@H]2C(C)C` [(1S,2S,5R,6R,7S)-2-isopropyl-5-methyl-bicyclo[4.1.0]heptane-7-carboxylic acid ethylamide], which cooling effect [2] is on record?
A: Its cooling effect is “slight”.

Q: And the intrinsic umami taste [2]?
A: Its intrinsic umami taste is “only moderately”.

Q: For `CCNC(=O)C1C2CCCCC21` (stereo not drawn) [Bicyclo[4.1.0]heptane-7-carboxylic acid N-ethylamide, reference compound], which taste ([2]; in vivo) is on record?
A: Its taste is “no detectable taste”.

Q: With `CC(C)[C@@H]1CC[C@@H](C)[C@H]2[C@H](C(=O)NC3CCC3)[C@H]21` [Formula (B1), (1S,2S,5R,6R,7S)-2-isopropyl-5-methyl-bicyclo[4.1.0]heptane-7-carboxylic acid cyclobutylamide] as the molecule, how does the intrinsic umami taste [2] read?
A: The intrinsic umami taste was “very strongly pronounced”.

Q: Which intrinsic umami taste [2] does the source give for `CC(C)[C@@H]1CC[C@@H](C)[C@@H]2[C@@H](C(=O)NC3CCC3)[C@@H]21` [Formula (B2), (1R,2S,5R,6S,7R)-2-isopropyl-5-methyl-bicyclo[4.1.0]heptane-7-carboxylic acid-cyclobutylamide] here?
A: The intrinsic umami taste was “very strongly pronounced”.

Q: Which intrinsic umami taste [2] does the source give for `CC(C)[C@@H]1CC[C@@H](C)[C@H]2[C@H](C(=O)NC3CCCCC3)[C@H]21` [Formula (H1), (1S,2S,5R,6R,7S)-2-isopropyl-5-methyl-bicyclo[4.1.0]heptane-7-carboxylic acid cyclohexylamide] here?
A: Its intrinsic umami taste is “very strongly pronounced”.

Q: For `CC(C)[C@@H]1CC[C@@H](C)[C@@H]2[C@@H](C(=O)NC3CCCCC3)[C@@H]21` [Formula (H2), (1R,2S,5R,6S,7R)-2-isopropyl-5-methyl-bicyclo[4.1.0]heptane-7-carboxylic acid-cyclohexylamide], which intrinsic umami taste [2] is on record?
A: Its intrinsic umami taste is “very strongly pronounced”.

Q: Which results are given for `CCNC(=O)C1C2C3CCC(C3)C12` (stereo not drawn) [Tricyclo[3.2.1.0^2,4]octane-3-carboxylic acid N-ethylamide]?
A: mouthfeel ([1]; 50 ppm in broths/consommés made from American beef extract): statistically significant increase; salt-intensifying effect [2]: salt-intensifying effect; intrinsic umami taste [2]: distinct umami taste

Q: For `CCNC(=O)C1CC1` [cyclopropanecarboxylic acid ethylamide, Cyclopropanecarboxylic acid N-ethylamide, reference compound], which “contribution to the mouthfeel” value ([1]; meat broth/consommé compositions) is on record?
A: The value was “does not make any statistically significant contribution”.

Q: And the umami taste ([2]; 10 ppm in aqueous solutions)?
A: Its umami taste is “very weak umami taste”.

Q: With “(1R,2S,5R,6S,7R)-2-isopropyl-5-methyl-bicyclo[4.1.0]heptane-7-carboxylic acid cyclobutylamide/(1S,2S,5R,6R,7S)-2-isopropyl-5-methyl-bicyclo[4.1.0]heptane-7-carboxylic acid cyclobutylamide [mixture of (B1) and (B2)]” as the molecule, how does the “umami taste compared to other compounds having an umami taste / MSG” value [1] read?
A: The value was “clear umami taste very similar to sodium glutamate (MSG)”.

Q: And the sweetish impression ([2]; in vivo)?
A: Its sweetish impression is “slightly sweetish impression”.

Q: And the intrinsic umami taste [2]?
A: Its intrinsic umami taste is “very strong umami note”.

Q: For “(1R,2S,5R,6S,7R)-2-isopropyl-5-methyl-bicyclo[4.1.0]heptane-7-carboxylic acid cyclohexylamide/(1S,2S,5R,6R,7S)-2-isopropyl-5-methyl-bicyclo[4.1.0]heptane-7-carboxylic acid cyclohexylamide [mixture of (H1) and (H2)]”, which intrinsic umami taste [2] is on record?
A: Its intrinsic umami taste is “umami note was also detected, which however developed somewhat more slowly”.

Q: Which “umami taste compared to other compounds having an umami taste / MSG” value [1] does the source give for “(1R,2S,5R,6S,7R)-2-isopropyl-5-methyl-bicyclo[4.1.0]heptane-7-carboxylic acid cyclopentylamide/(1S,2S,5R,6R,7S)-2-isopropyl-5-methyl-bicyclo[4.1.0]heptane-7-carboxylic acid cyclopentylamide [mixture of (P1) and (P2)]” here?
A: The value was “clear umami taste very similar to sodium glutamate (MSG)”.

Q: And the umami taste ([2]; at very low concentrations)?
A: The umami taste was “very much more intensive and clear”.
